Where a name gives a salt, the structure may show the parent alone.
Columns and labels:
HeLa cells = assay: Cancer cell growth inhibition evaluation (MTT assay); format: cell-based; conditions: Homo sapiens; 48 hours with compound, MTT; read-out: GI50 (μM) HeLa
Method: (§1) Evaluation was performed by measuring the inhibitory activities of a compound against the growth of a human cervical cancer-derived cell line, HeLa cells, and a human neuroblastoma cell line, SH-SY5Y cells. Details thereof are shown below. […] This assay involves, as a principle thereof, measuring an absorbance at the time of color development through a reaction of NADH, which is contained in the mitochondria of viable cells, and MTT to measure the amount of NADH. The assay was performed by the following procedure. […] After the culture, a compound was added. Then, the cells were cultured for an additional 48 hours, and then 5 mg/ml MTT liquid was added at 10 μl per well. The cells were cultured for an additional 3 hours in a CO2 incubator. A solubilization solution (0.04 mol/l hydrochloric acid-isopropanol) was added at 100 μl per well and the mixture was vigorously vortexed. After that, an absorbance at 560 nm was measured with Fusion-aFP (manufactured by PerkinElmer) and the amount of viable cells was determined.

SH-SY5Y cells = assay: as above; format: cell-based; conditions: Homo sapiens, MTT, read-out: GI50 (μM) SH-SY5Y
Method: as §1

LSD1 = target: T1, LSD1 (Homo sapiens, UniProt O60341); assay: LSD1 inhibition test (peroxidase-coupled absorbance assay); format: biochemical; conditions: 25° C., 30 minutes, histone H3-lysine 4 dimethyl peptide
T1 construct: five histidine residues added to the N-terminus of full-length LSD1 (1-851aa); 5xHis (five histidine residues) (N); made in house; host or cells: Escherichia coli

| SMILES | melting point | GI50 (HeLa cells) | GI50 (SH-SY5Y cells) | IC50 (LSD1) |
| --- | --- | --- | --- | --- |
| CC(C)(C)c1ccc(C(=O)N[C@@H](CCCCNC2CC2c2ccccc2)C(=O)NCc2ccccc2)cc1 (stereo partly drawn) (as salt: hydrochloride) [Example 5, 2-[N-(4-tert-Butylbenzenecarbonyl)]amino-6-(trans-2-phenylcyclopropan-1-amino)-N-benzylhexanamide Hydrochloride] | 101 to 103 °C |  |  |  |
| O=C(N[C@@H](CCCCNC1CC1c1ccccc1)C(=O)NCc1ccccc1)c1ccc(Cl)cc1 (stereo partly drawn) (as salt: hydrochloride) [Example 6, 2-[N-(4-Chlorobenzenecarbonyl)]amino-6-(trans-2-phenylcyclopropan-1-amino)-N-benzylhexanamide Hydrochloride] | 107 to 109 °C |  |  |  |
| O=C(N[C@@H](CCCCNC1CC1c1ccccc1)C(=O)NCc1ccccc1)c1ccc(F)cc1 (stereo partly drawn) (as salt: hydrochloride) [Example 7, 2-[N-(4-Fluorobenzenecarbonyl)]amino-6-(trans-2-phenylcyclopropan-1-amino)-N-benzylhexanamide Hydrochloride] | 90 to 91 °C |  |  |  |
| O=C(N[C@@H](CCCCNC1CC1c1ccccc1)C(=O)NCc1ccccc1)c1ccc(-c2ccccc2)cc1 (stereo partly drawn) (as salt: hydrochloride) [Example 8, 2-[N-(4-Phenylbenzenecarbonyl)]amino-6-(trans-2-phenylcyclopropan-1-amino)-N-benzylhexanamide Hydrochloride] | 143 to 146 °C |  |  |  |
| O=C(N[C@@H](CCCCNC1CC1c1ccccc1)C(=O)NCc1ccccc1)c1ccc(C(F)(F)F)cc1 (stereo partly drawn) (as salt: hydrochloride) [Example 9, 2-[N-(4-Trifluoromethylbenzenecarbonyl)]amino-6-(trans-2-phenylcyclopropan-1-amino)-N-benzylhexanamide Hydrochloride] | 98 to 101 °C |  |  |  |
| Cc1ccc(CNC(=O)[C@H](CCCCNC2CC2c2ccccc2)NC(=O)c2ccc(-c3ccccc3)cc2)cc1 (stereo partly drawn) (as salt: hydrochloride) [Example 12, 2-[N-(4-Phenylbenzenecarbonyl)]amino-6-(trans-2-phenylcyclopropan-1-amino)-N-(4-methylbenzyl)hexanamide Hydrochloride] | 117 to 118 °C |  |  |  |
| O=C(N[C@@H](CCCCNC1CC1c1ccccc1)C(=O)NCc1ccc(F)cc1)c1ccc(-c2ccccc2)cc1 (stereo partly drawn) (as salt: hydrochloride) [Example 13, 2-[N-(4-Phenylbenzenecarbonyl)]amino-6-(trans-2-phenylcyclopropan-1-amino)-N-(4-fluorobenzyl)hexanamide Hydrochloride] | 95 to 96 °C |  |  |  |
| O=C(N[C@@H](CCCCNC1CC1c1ccccc1)C(=O)NCc1ccc(-c2ccccc2)cc1)c1ccc(-c2ccccc2)cc1 (stereo partly drawn) (as salt: hydrochloride) [Example 14, 2-[N-(4-Phenylbenzenecarbonyl)]amino-6-(trans-2-phenylcyclopropan-1-amino)-N-(4-phenylbenzyl)hexanamide Hydrochloride] | 139 to 140 °C |  |  |  |
| Cc1cccc(CNC(=O)[C@H](CCCCNC2CC2c2ccccc2)NC(=O)c2ccc(-c3ccccc3)cc2)c1 (stereo partly drawn) (as salt: hydrochloride) [Example 16, 2-[N-(4-Phenylbenzenecarbonyl)]amino-6-(trans-2-phenylcyclopropan-1-amino)-N-(3-methylbenzyl)hexanamide Hydrochloride] | 101 to 103 °C |  |  |  |
| NC1CC1c1ccccc1 (stereo not drawn) [Comp. Ex. 1, trans-2-Phenylcyclopropylamine, reference compound] |  | > 500 µM | 503 µM |  |
| CC(C)(C)OC(=O)N[C@@H](CCCCNC1CC1c1ccccc1)C(=O)NCc1ccccc1 (stereo partly drawn) [Example 2, 2-(N-tert-Butoxycarbonyl)amino-6-(trans-2-phenylcyclopropan-1-amino)-N-benzylhexanamide] |  |  |  | 1.2 µM |
| N[C@@H](CCCCNC1CC1c1ccccc1)C(=O)NCc1ccccc1 (stereo partly drawn) [Example 3, 2-Amino-6-(trans-2-phenylcyclopropan-1-amino)-N-benzylhexanamide Dihydrochloride] |  |  |  | 0.06 µM |
| Cc1ccc(C(=O)N[C@@H](CCCCNC2CC2c2ccccc2)C(=O)NCc2ccccc2)cc1 (stereo partly drawn) [Example 4, 2-[N-(4-Methylbenzenecarbonyl)]amino-6-(trans-2-phenylcyclopropan-1-amino)-N-benzylhexanamide Trifluoroacetate] |  |  |  | 0.44 µM |
| CC(C)(C)c1ccc(C(=O)N[C@@H](CCCCNC2CC2c2ccccc2)C(=O)NCc2ccccc2)cc1 (stereo partly drawn) [Example 5, 2-[N-(4-tert-Butylbenzenecarbonyl)]amino-6-(trans-2-phenylcyclopropan-1-amino)-N-benzylhexanamide Hydrochloride] |  | 12 µM | 4.8 µM | 0.79 µM |
| O=C(N[C@@H](CCCCNC1CC1c1ccccc1)C(=O)NCc1ccccc1)c1ccc(Cl)cc1 (stereo partly drawn) [Example 6, 2-[N-(4-Chlorobenzenecarbonyl)]amino-6-(trans-2-phenylcyclopropan-1-amino)-N-benzylhexanamide Hydrochloride] |  | 13 µM | 11 µM | 0.2 µM |
| O=C(N[C@@H](CCCCNC1CC1c1ccccc1)C(=O)NCc1ccccc1)c1ccc(F)cc1 (stereo partly drawn) [Example 7, 2-[N-(4-Fluorobenzenecarbonyl)]amino-6-(trans-2-phenylcyclopropan-1-amino)-N-benzylhexanamide Hydrochloride] |  |  |  | 0.25 µM |
| O=C(N[C@@H](CCCCNC1CC1c1ccccc1)C(=O)NCc1ccccc1)c1ccc(C(F)(F)F)cc1 (stereo partly drawn) [Example 9, 2-[N-(4-Trifluoromethylbenzenecarbonyl)]amino-6-(trans-2-phenylcyclopropan-1-amino)-N-benzylhexanamide Hydrochloride] |  | 13 µM | 5.4 µM | 0.38 µM |
| NCCNC(=O)c1cccc(C(=O)N[C@@H](CCCCNC2CC2c2ccccc2)C(=O)NCc2ccccc2)c1 (stereo partly drawn) [Example 10, 2-{3-[(2-Amino)ethylcarbamoyl]benzenecarbonylamino)-6-(trans-2-phenylcyclopropan-1-amino)-N-benzylhexanamide Ditrifluoroacetate] |  |  |  | 0.1 µM |
| O=C(N[C@@H](CCCCNC1CC1c1ccccc1)C(=O)NCc1ccccc1)c1cccc(C(=O)N2CCNCC2)c1 (stereo partly drawn) [Example 11, 2-[3-(Piperazine-1-carbonyl)benzenecarbonylamino}-6-(trans-2-phenylcyclopropan-1-amino)-N-benzylhexanamide Ditrifluoroacetate] |  |  |  | 0.25 µM |
| Cc1ccc(CNC(=O)[C@H](CCCCNC2CC2c2ccccc2)NC(=O)c2ccc(-c3ccccc3)cc2)cc1 (stereo partly drawn) [Example 12, 2-[N-(4-Phenylbenzenecarbonyl)]amino-6-(trans-2-phenylcyclopropan-1-amino)-N-(4-methylbenzyl)hexanamide Hydrochloride] |  | 4.4 µM | 3.5 µM | 0.6 µM |
| O=C(N[C@@H](CCCCNC1CC1c1ccccc1)C(=O)NCc1ccc(F)cc1)c1ccc(-c2ccccc2)cc1 (stereo partly drawn) [Example 13, 2-[N-(4-Phenylbenzenecarbonyl)]amino-6-(trans-2-phenylcyclopropan-1-amino)-N-(4-fluorobenzyl)hexanamide Hydrochloride] |  | 4.4 µM | 3.9 µM | 0.75 µM |
| O=C(N[C@@H](CCCCNC1CC1c1ccccc1)C(=O)NCc1ccc(-c2ccccc2)cc1)c1ccc(-c2ccccc2)cc1 (stereo partly drawn) [Example 14, 2-[N-(4-Phenylbenzenecarbonyl)]amino-6-(trans-2-phenylcyclopropan-1-amino)-N-(4-phenylbenzyl)hexanamide Hydrochloride] |  | 5.2 µM | 6.4 µM | 2.7 µM |
| CC(C)(C)c1ccc(CNC(=O)[C@H](CCCCNC2CC2c2ccccc2)NC(=O)c2ccc(-c3ccccc3)cc2)cc1 (stereo partly drawn) [Example 15, 2-[N-(4-Phenylbenzenecarbonyl)]amino-6-(trans-2-phenylcyclopropan-1-amino)-N-(4-tert-butylbenzyl)hexanamide Trifluoroacetate] |  | 4 µM | 2.7 µM | 1.2 µM |
| Cc1cccc(CNC(=O)[C@H](CCCCNC2CC2c2ccccc2)NC(=O)c2ccc(-c3ccccc3)cc2)c1 (stereo partly drawn) [Example 16, 2-[N-(4-Phenylbenzenecarbonyl)]amino-6-(trans-2-phenylcyclopropan-1-amino)-N-(3-methylbenzyl)hexanamide Hydrochloride] |  | 4.2 µM | 2.3 µM | 0.68 µM |
| O=C(N[C@@H](CCCCNC1CC1c1ccccc1)C(=O)NCc1cccc(F)c1)c1ccc(-c2ccccc2)cc1 (stereo partly drawn) [Example 17, 2-[N-(4-Phenylbenzenecarbonyl)]amino-6-(trans-2-phenylcyclopropan-1-amino)-N-(3-fluorobenzyl)hexanamide Hydrochloride] |  | 10.9 µM | 4.1 µM | 0.67 µM |
| O=C(N[C@@H](CCCCNC1CC1c1ccccc1)C(=O)NCc1cccc(-c2ccccc2)c1)c1ccc(-c2ccccc2)cc1 (stereo partly drawn) [Example 18, 2-[N-(4-Phenylbenzenecarbonyl)]amino-6-(trans-2-phenylcyclopropan-1-amino)-N-(3-phenylbenzyl)hexanamide Hydrochloride] |  | 9.7 µM | 3.8 µM | 0.98 µM |

From patent US9388123B2, “LSD1-selective inhibitor having lysine structure” (KYOTO UNIVERSITY, priority 2012, dated 2016)
